Results reported in patent US7585859B2, “PDE4B inhibitors and uses therefor” (Plexxikon, Inc., priority 2004, dated 2009).
Read-outs that look alike come from different tables or passages of the source.

Assays:
[1] = target: T1, PDE4B: The catalytic domain of human PDE4B from S152-S528 (Homo sapiens, UniProt Q07343); assay: PDE4 IC50 determination by Scintillation Proximity Assay, PDE4B; assay type: biochemical
T1 construct: His6 (N); thrombin cleavage site (N); made in house; host or cells: E. coli
In short: (§1)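 Scintillation counts reflected [^3H]AMP captured on yttrium silicate SPA beads after enzyme hydrolysed [^3H]cAMP for 30 min at 30°. PDE4B was used at 80 ng/ml and PDE4D at 4 ng/ml. IC50 values came from non-linear regression.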

[2] = target: T2, full-length human PDE4B2 isozyme (Homo sapiens, UniProt Q07343); assay: PDE4 IC50 determination by Scintillation Proximity Assay, PDE4B2; assay type: biochemical; details: Table 1B, Formula I compounds; read-out: IC50 PDE4B2
T2 construct: The full-length human PDE4B2 isozyme; His6 (N); TEV cleavage site (N); made in house; host or cells: baculovirus infected insect cells (unpurified lysate)
In short: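 Unpurified His6-TEV-tagged full-length human PDE4B2 from baculovirus-infected insect cell lysate (2.5 μl of 50% glycerol stock/ml) hydrolysed [3H]cAMP in 50 mM Tris pH 7.5, 8.3 mM MgCl, 1.7 mM EGTA, 0.01% BSA for 30 min at 30°. Stopped with SPA beads in 18 mM ZnSO4; [3H]AMP scintillation counted, IC50 by non-linear regression.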

[3] = target: T3, full-length human PDE4D5 isozyme (Homo sapiens, UniProt Q08499); assay: PDE4 IC50 determination by Scintillation Proximity Assay, PDE4D5; assay type: biochemical; details: Table 1B, Formula I compounds; read-out: IC50 PDE4D5
T3 construct: The full-length human PDE4D5 isozyme; His6 (N); TEV cleavage site (N); made in house; host or cells: baculovirus infected insect cells (unpurified lysate)
In short: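 Unpurified His6-tagged full-length human PDE4D5 from baculovirus-infected insect cell lysate, 0.083 μl glycerol stock/ml, hydrolysed [3H]cAMP in Tris pH 7.5/MgCl/EGTA buffer, 30 min at 30°. ZnSO4/SPA beads stop; [3H]AMP counted. Controls: DMSO and roflumilast; 11-point duplicate curves, nonlinear-regression IC50.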

[4] = target: T4, PDE4D (Homo sapiens, UniProt Q08499); assay: PDE4 IC50 determination by Scintillation Proximity Assay, PDE4D; assay type: biochemical
T4 construct: PDE4D: The catalytic domain of human PDE4B from S3 16-V692; His6 (N); thrombin cleavage site (N); made in house; host or cells: E. coli
In short: as §1

[5] = system: TNFα levels in serum of LPS-challenged rats; assay: Rat inhibition studies: serum TNFα after iv LPS challenge; assay type: in vivo; details: read-out: % inhibition r TNFα
Procedure: All studies were done with male rats CD (SD) IGS BR (Crl) (Charles River, France), which were grouped in to 5 animal groups.
At the end of the acclimatization period, the non-fasted rats were weighed, individually identified on the tail with a permanent marker and administered by oral (po) or interperitoneal (ip) route with either vehicle, reference or test compound in a volume of 10 mL/kg adapted to the body weight. The animals were gathered in groups of 5 animals in a polystyrene labeled cage with sawdust covered floors. 2-hours after vehicle, reference or test substance administration, rats received an intravenous (iv) injection of 0.1 mg/kg LPS in a volume of 1 mL/kg of body weight. 2 h after LPS challenge (or as indicated in Tables 3B and 4B), blood samples were collected into tubes without anticoagulant by retro-orbital puncture under gas (isoflurane) anesthesia. Samples were allowed to clot at room temperature for 5 to 10 min then put on ice until there were prepared by centrifugation (6000×g for 3 min at 4° C.) and stored at −20° C. until use. TNFα levels were measured in serum samples in duplicate by ELISA technique according to the manufacturer's procedure (Rat TNFα kit Quantikine M (RTA00, R&D System, France)). Data are reported as percent decrease in observed TNFα levels versus TNFa levels observed for vehicle dosed animal groups.

[6] = Table 1B, Formula I compounds, read-out: IC50 PDE4B
[7] = Table 1B, Formula I compounds, read-out: IC50 PDE4D
[8] = po, 2 h, rat in vivo inhibition assay, 100 mg/kg po, 2 hr challenge delay
[9] = po, 1 h, rat, 100 mg/kg po, 1 hr challenge delay
[10] = 2 h, rat, ip, 2 hr challenge delay
[11] = 2 h, rat, po, 2 hr challenge delay
[12] = second part of Table 2B (2-23 to 2-103), column 3, column is PDE4B in first part, read-out: IC 50 vs. indicated assay h TNFα
[13] = second part of Table 2B (2-23 to 2-103), column 5, column is PDE4D in first part, read-out: IC 50 vs. indicated assay h TNFα

T2 sequence (Q07343 1-564 isoform Q07343-2): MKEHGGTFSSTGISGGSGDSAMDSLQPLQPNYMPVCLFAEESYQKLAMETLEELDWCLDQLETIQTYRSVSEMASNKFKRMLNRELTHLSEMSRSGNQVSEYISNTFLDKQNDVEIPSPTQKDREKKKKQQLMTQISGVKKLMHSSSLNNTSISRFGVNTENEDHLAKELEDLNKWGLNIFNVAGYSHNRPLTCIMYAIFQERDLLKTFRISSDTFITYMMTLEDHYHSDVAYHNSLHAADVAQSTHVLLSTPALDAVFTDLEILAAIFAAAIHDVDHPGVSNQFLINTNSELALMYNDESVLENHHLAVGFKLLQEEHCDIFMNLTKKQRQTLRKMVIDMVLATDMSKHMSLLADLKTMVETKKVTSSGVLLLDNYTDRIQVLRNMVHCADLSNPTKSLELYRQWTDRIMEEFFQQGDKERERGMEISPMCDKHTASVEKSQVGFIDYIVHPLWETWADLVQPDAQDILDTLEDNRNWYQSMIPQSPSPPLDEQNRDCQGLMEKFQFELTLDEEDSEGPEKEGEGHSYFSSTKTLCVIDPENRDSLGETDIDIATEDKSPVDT
T4 sequence (Q08499 380-756): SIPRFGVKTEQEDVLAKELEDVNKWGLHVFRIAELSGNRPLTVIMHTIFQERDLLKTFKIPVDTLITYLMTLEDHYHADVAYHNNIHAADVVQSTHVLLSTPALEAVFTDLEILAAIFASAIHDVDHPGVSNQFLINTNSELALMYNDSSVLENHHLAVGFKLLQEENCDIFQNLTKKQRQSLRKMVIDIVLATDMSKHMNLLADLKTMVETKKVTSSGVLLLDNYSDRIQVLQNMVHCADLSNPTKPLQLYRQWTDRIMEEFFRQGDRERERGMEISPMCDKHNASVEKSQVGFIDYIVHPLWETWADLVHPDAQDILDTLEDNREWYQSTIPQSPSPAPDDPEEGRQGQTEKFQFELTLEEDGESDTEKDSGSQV
T1 sequence (Q07343 with tags, fused parts or gaps): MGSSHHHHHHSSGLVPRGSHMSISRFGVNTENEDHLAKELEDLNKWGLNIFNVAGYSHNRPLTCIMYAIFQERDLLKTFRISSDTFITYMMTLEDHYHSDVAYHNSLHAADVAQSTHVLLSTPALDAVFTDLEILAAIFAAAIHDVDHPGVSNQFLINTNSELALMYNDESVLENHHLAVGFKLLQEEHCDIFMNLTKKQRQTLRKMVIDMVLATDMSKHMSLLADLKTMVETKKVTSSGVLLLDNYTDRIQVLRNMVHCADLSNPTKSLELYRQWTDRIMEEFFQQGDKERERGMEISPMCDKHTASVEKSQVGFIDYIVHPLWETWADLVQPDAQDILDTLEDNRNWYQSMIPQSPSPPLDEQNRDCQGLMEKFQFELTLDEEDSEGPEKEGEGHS
T3 sequence (Q08499 1-745 isoform Q08499-6): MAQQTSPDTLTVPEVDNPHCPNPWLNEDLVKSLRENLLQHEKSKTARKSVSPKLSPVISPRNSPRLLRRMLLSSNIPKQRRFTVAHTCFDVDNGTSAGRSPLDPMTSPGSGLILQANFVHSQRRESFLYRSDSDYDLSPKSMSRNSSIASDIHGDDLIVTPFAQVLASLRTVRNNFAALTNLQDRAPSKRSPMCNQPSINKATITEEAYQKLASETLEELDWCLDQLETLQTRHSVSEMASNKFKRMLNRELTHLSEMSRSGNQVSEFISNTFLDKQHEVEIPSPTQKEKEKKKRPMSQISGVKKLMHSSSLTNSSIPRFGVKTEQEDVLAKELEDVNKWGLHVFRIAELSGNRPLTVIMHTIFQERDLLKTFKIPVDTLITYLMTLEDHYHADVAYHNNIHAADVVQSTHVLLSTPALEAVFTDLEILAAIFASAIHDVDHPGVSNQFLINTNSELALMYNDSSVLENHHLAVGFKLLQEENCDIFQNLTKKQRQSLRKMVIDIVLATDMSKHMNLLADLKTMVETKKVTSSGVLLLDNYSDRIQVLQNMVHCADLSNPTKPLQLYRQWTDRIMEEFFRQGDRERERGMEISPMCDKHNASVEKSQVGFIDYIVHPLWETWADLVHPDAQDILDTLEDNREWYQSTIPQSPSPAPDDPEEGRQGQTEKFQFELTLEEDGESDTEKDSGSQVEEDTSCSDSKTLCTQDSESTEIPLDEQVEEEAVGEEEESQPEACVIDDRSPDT

Compound	IC50 [1, 6] [µM]	IC50 [2] [µM]	IC50 [3] [µM]	IC50 [4, 7] [µM]	inhibition in vivo at 100 mg/kg [5, 8] [%]	further results
Cc1ccc(C(=O)c2sc(Nc3ccccc3)c(C#N)c2N)cc1 [Compound 1-29, 4-Amino-5-(4-methyl-benzoyl)-2-phenylamino-thiophene-3-carbonitrile]	< 10	< 10	< 10	< 10		inhibition in vivo at 100 mg/kg ([5]; ip, 1 h, rat, 100 mg/kg, ip, 1 hr challenge delay): > 20%
COc1ccccc1Nc1sc(C(=O)c2ccccc2)c(N)c1C#N [Compound 1-30, 4-Amino-5-benzoyl-2-(2-methoxy-phenylamino)-thiophene-3-carbonitrile]	< 10	< 10	< 10	< 10	> 20	
COc1ccc(Nc2sc(C(=O)c3ccccc3)c(N)c2C#N)cc1 [Compound 1-32, 4-Amino-5-benzoyl-2-(4-methoxy-phenylamino)-thiophene-3-carbonitrile]	< 10	< 10	< 10	< 10	< 20	
COc1cccc(C(=O)c2sc(Nc3ccccc3)c(C#N)c2N)c1 [Compound 1-33, 4-Amino-5-(3-methoxy-benzoyl)-2-phenylamino-thiophene-3-carbonitrile]	< 10	< 10	< 10	< 10	> 20	
N#Cc1c(Nc2ccccc2)sc(C(=O)c2ccc(-c3ccccc3)cc2)c1N [Compound 1-34, 4-Amino-5-(biphenyl-4-carbonyl)-2-phenylamino-thiophene-3-carbontrile]	< 10	< 10	< 10	< 10	> 20	
N#Cc1c(Nc2ccccc2)sc(C(=O)c2ccc3ccccc3c2)c1N [Compound 1-35, 4-Amino-5-(naphthalene-2-carbonyl)-2-phenylamino-thiophene-3-carbonitrile]	< 10	< 10	< 10	< 10	< 20	
COc1ccc(C(=O)c2sc(Nc3ccc(Cl)cc3)c(C#N)c2N)cc1 [Compound 1-36, 4-Amino-2-(4-chloro-phenylamino)-5-(4-methoxy-benzoyl)-thiophene-3-carbonitrile]	< 10	< 10	< 10	< 10		inhibition in vivo at 100 mg/kg [5, 9]: < 20%
COc1ccc(C(=O)c2sc(Nc3ccc(F)cc3)c(C#N)c2N)cc1 [Compound 1-37, 4-Amino-2-(4-fluoro-phenylamino)-5-(4-methoxy-benzoyl)-thiophene-3-carbonitrile]	< 10	< 10	< 10	< 10		inhibition in vivo at 100 mg/kg [5, 9]: < 20%
N#Cc1c(NC2CCCC2)sc(C(=O)c2cc(-c3ccccc3)no2)c1N [Compound 1-143, 4-Amino-2-cyclopentylamino-5-(3-phenyl-isoxazole-5-carbonyl)-thiophene-3-carbonitrile]	< 10	< 10	< 10	< 10		inhibition in vivo at 50 mg [5, 10]: > 20%; inhibition in vivo at 80 mg ([5]; 2 h, rat, 80 mg, po, 2 hr challenge delay): < 20%; inhibition in vivo at 100 mg/kg ([5]; ip, 2 h, rat, 100 mg/kg, ip, 2 hr challenge delay): > 20%
N#Cc1c(Nc2ccc(Oc3ccccc3)cc2)sc(C(=O)c2ccccc2Cl)c1N [Compound 1-161, 4-Amino-5-(2-chloro-benzoyl)-2-(4-phenoxy-phenylamino)-thiophene-3-carbonitrile]	< 10	< 10	< 10	> 10		inhibition in vivo at 90 mg [5, 10]: > 20%; inhibition in vivo at 90 mg [5, 11]: < 20%
CSc1cccc(Nc2sc(C(=O)c3ccccc3)c(N)c2C#N)c1 [Compound 1-169, 4-Amino-5-benzoyl-2-(3-methylsulfanyl-phenylamino)-thiophene-3-carbonitrile]	< 10	< 10	< 10	< 10		inhibition in vivo at 70 mg ([5]; 2 h, rat, 70 mg, po, 2 hr challenge delay): > 20%
N#Cc1c(NC2CCCC2)sc(C(=O)c2ccccc2)c1N [Compound 1-171, 4-Amino-5-benzoyl-2-cyclopentylamino-thiophene-3-carbonitrile]	< 10	< 10	< 10	< 10	< 20	
N#Cc1c(NC2CCCC2)sc(C(=O)c2cc(-c3ccc(Cl)cc3)no2)c1N [Compound 1-173, 4-Amino-5-[3-(4-chloro-phenyl)-isoxazole-5-carbonyl]-2-cyclopentylamino-thiophene-3-carbonitrile]	< 10	< 10	> 10	> 10	< 20	
CSc1cccc(Nc2sc(C(=O)c3cc(-c4ccccc4)no3)c(N)c2C#N)c1 [Compound 1-181, 4-Amino-2-(3-methylsulfanyl-phenylamino)-5-(3-phenyl-isoxazole-5-carbonyl)-thiophene-3-carbonitrile]	< 10	< 10	< 10	< 10	< 20	
N#Cc1c(NC2CC2)sc(C(=O)c2cc(-c3ccccc3)no2)c1N [Compound 1-186, 4-Amino-2-cyclopropylamino-5-(3-phenyl-isoxazole-5-carbonyl)-thiophene-3-carbonitrile]	< 10	< 10	< 10	> 10	< 20	
N#Cc1c(NCc2ccccc2)sc(C(=O)c2cc(-c3ccccc3)no2)c1N [Compound 1-193, 4-Amino-2-benzylamino-5-(3-phenyl-isoxazole-5-carbonyl)-thiophene-3-carbonitrile]	< 10	> 10	> 10		< 20	
N#Cc1c(NC2CCCC2)sc(C(=O)c2cc(-c3ccc(F)cc3)no2)c1N [Compound 1-221, 4-Amino-2-cyclopentylamino-5-[3-(4-fluoro-phenyl)-isoxazole-5-carbonyl]-thiophene-3-carbonitrile]	< 10	< 10	> 10	> 10		inhibition in vivo at 50 mg [5, 11]: < 20%
COc1ccc(C(=O)c2sc(Nc3c(Cl)cccc3Cl)nc2N)cc1 [Compound 2-41, [4-Amino-2-(2,6-dichloro-phenylamino)-thiazol-5-yl]-(4-methoxy-phenyl)-methanone]						IC50 [1, 12]: < 10 µM; IC50 [4, 13]: < 10 µM; inhibition in vivo at 100 mg/kg ([5]; po, 2 h, rat in vivo, 100 mg/kg po, 2 hr challenge delay, percent decrease in TNFα versus vehicle): < 20%
Nc1nc(Nc2c(Cl)cccc2Cl)sc1C(=O)C1CCCC1 [Compound 2-93, [4-Amino-2-(2,6-dichloro-phenylamino)-thiazol-5-yl]-cyclopentyl-methanone]						IC50 [1, 12]: < 10 µM; IC50 [4, 13]: < 10 µM; inhibition in vivo at 100 mg/kg ([5]; po, 1 h, rat in vivo, 100 mg/kg po, 1 hr): < 20%
